Data: ChEMBL document CHEMBL5365497, “Developing Novel Coumarin-Containing Azoles Antifungal Agents by the Scaffold Merging Strategy for Treating Azole-Resistant Candidiasis” (J Med Chem, 2023)
Values after ≈ are worked out from the molar mass of the structure shown.

How the values were obtained:
Format in all cases: functional
[1] = tested on: Pichia kudriavzevii; assay: Antifungal activity against Pichia kudriavzevii assessed as fungal growth inhibition by CLSI based microdilution method
[2] = tested on: Candida albicans; assay: Antifungal activity against Candida albicans SC5314 assessed as fungal growth inhibition by CLSI based microdilution method
[3] = tested on: Cryptococcus neoformans; assay: Antifungal activity against Cryptococcus neoformans assessed as fungal growth inhibition by CLSI based microdilution method
[4] = tested on: Candida albicans; assay: Antifungal activity against fluconazole-resistant Candida albicans 632 assessed as fungal growth inhibition by CLSI based microdilution method
[5] = tested on: Candida albicans; assay: Antifungal activity against fluconazole-resistant Candida albicans CaR assessed as fungal growth inhibition by CLSI based microdilution method
[6] = tested on: Candida albicans; assay: Antifungal activity against Candida albicans CPCC400616 assessed as fungal growth inhibition by CLSI based microdilution method
[7] = tested on: Candida albicans; assay: Antifungal activity against fluconazole-resistant Candida albicans 17# assessed as fungal growth inhibition by CLSI based microdilution method
[8] = tested on: Candida albicans; assay: Antifungal activity against fluconazole-resistant Candida albicans 904 assessed as fungal growth inhibition by CLSI based microdilution method
[9] = tested on: Candida tropicalis; assay: Antifungal activity against Candida tropicalis assessed as fungal growth inhibition by CLSI based microdilution method
[10] = tested on: Candida parapsilosis; assay: Antifungal activity against Candida parapsilosis assessed as fungal growth inhibition by CLSI based microdilution method; settings: Lodderomyces parapsilosis
[11] = tested on: Nakaseomyces glabratus; assay: Antifungal activity against Candida glabrata assessed as fungal growth inhibition by CLSI based microdilution method
[12] = tested on: Candida albicans; assay: Antifungal activity against fluconazole-resistant Candida albicans 901 assessed as fungal growth inhibition by CLSI based microdilution method

Compound	MIC [1] [µg/mL]	MIC [2] [µg/mL]	MIC [3] [µg/mL]	MIC [4] [µg/mL]	MIC [5] [µg/mL]	MIC [6] [µg/mL]	MIC [7] [µg/mL]	MIC [8] [µg/mL]	MIC [9] [µg/mL]	MIC [10] [µg/mL]	MIC [11] [µg/mL]	MIC [12] [µg/mL]
O=c1ccc2cc(COC(Cn3ccnc3)c3ccc(F)cc3F)ccc2o1 (configuration not stated)	8 (≈ 20.9 µM)	0.25 (≈ 0.654 µM)	32 (≈ 83.7 µM)	64 (≈ 167 µM)	64 (≈ 167 µM)	0.5 (≈ 1.31 µM)	4 (≈ 10.5 µM)	32 (≈ 83.7 µM)	2 (≈ 5.23 µM)	2 (≈ 5.23 µM)	16 (≈ 41.8 µM)	32 (≈ 83.7 µM)
O=c1ccc2ccc(COC(Cn3cnnn3)c3ccc(F)cc3F)cc2o1 (configuration not stated)	32 (≈ 83.3 µM)	> 128	8 (≈ 20.8 µM)	–	–	> 128	–	–	64 (≈ 167 µM)	128 (≈ 333 µM)	64 (≈ 167 µM)	–
O=c1oc2ccccc2cc1COC(Cn1ccnc1)c1ccc(F)cc1 (configuration not stated)	1 (≈ 2.74 µM)	0.03 (≈ 0.0823 µM)	0.125 (≈ 0.343 µM)	8 (≈ 22 µM)	0.5 (≈ 1.37 µM)	0.06 (≈ 0.165 µM)	2 (≈ 5.49 µM)	4 (≈ 11 µM)	0.5 (≈ 1.37 µM)	< 0.25	1 (≈ 2.74 µM)	8 (≈ 22 µM)
O=c1ccc2ccc(COC(Cn3ccnn3)c3ccc(F)cc3F)cc2o1 (configuration not stated)	> 128	> 128	> 128	–	–	> 128	–	–	4 (≈ 10.4 µM)	> 128	128 (≈ 334 µM)	–
O=c1ccc2cc(COC(Cn3cncn3)c3ccc(Cl)cc3Cl)ccc2o1 (configuration not stated)	16 (≈ 38.4 µM)	0.25 (≈ 0.601 µM)	32 (≈ 76.9 µM)	–	–	4 (≈ 9.61 µM)	–	–	32 (≈ 76.9 µM)	2 (≈ 4.8 µM)	32 (≈ 76.9 µM)	–
O=c1ccc2ccc(COC(Cn3ccnc3)c3ccc(F)cc3)cc2o1 (configuration not stated)	32 (≈ 87.8 µM)	0.5 (≈ 1.37 µM)	4 (≈ 11 µM)	32 (≈ 87.8 µM)	128 (≈ 351 µM)	2 (≈ 5.49 µM)	128 (≈ 351 µM)	32 (≈ 87.8 µM)	4 (≈ 11 µM)	16 (≈ 43.9 µM)	64 (≈ 176 µM)	64 (≈ 176 µM)
O=c1ccc2cc(COC(Cn3ccnc3)c3ccc(F)cc3)ccc2o1 (configuration not stated)	64 (≈ 176 µM)	0.5 (≈ 1.37 µM)	64 (≈ 176 µM)	64 (≈ 176 µM)	128 (≈ 351 µM)	2 (≈ 5.49 µM)	128 (≈ 351 µM)	32 (≈ 87.8 µM)	8 (≈ 22 µM)	4 (≈ 11 µM)	32 (≈ 87.8 µM)	64 (≈ 176 µM)
O=c1oc2ccccc2cc1COC(Cn1cncn1)c1ccc(Cl)cc1Cl (configuration not stated)	32 (≈ 76.9 µM)	0.25 (≈ 0.601 µM)	16 (≈ 38.4 µM)	–	–	4 (≈ 9.61 µM)	–	–	16 (≈ 38.4 µM)	4 (≈ 9.61 µM)	8 (≈ 19.2 µM)	–
O=c1oc2c(Cl)cc(Cl)cc2cc1COC(Cn1ccnc1)c1ccc(F)cc1 (configuration not stated)	> 128	> 128	128 (≈ 295 µM)	–	–	> 128	–	–	> 128	> 128	> 128	–
O=c1ccc2ccc(COC(Cn3cnnn3)c3ccc(Cl)cc3Cl)cc2o1 (configuration not stated)	> 128	> 128	32 (≈ 76.7 µM)	–	–	> 128	–	–	128 (≈ 307 µM)	64 (≈ 153 µM)	64 (≈ 153 µM)	–
O=c1oc2c(Cl)cc(Cl)cc2cc1COC(Cn1ccnc1)c1ccc(F)cc1F (configuration not stated)	> 128	> 128	64 (≈ 142 µM)	–	–	> 128	–	–	> 128	> 128	> 128	–
O=c1oc2ccc([N+](=O)[O-])cc2cc1COC(Cn1ccnc1)c1ccc(F)cc1F (configuration not stated)	128 (≈ 300 µM)	> 128	64 (≈ 150 µM)	–	–	> 128	–	–	128 (≈ 300 µM)	64 (≈ 150 µM)	32 (≈ 74.9 µM)	–
OB1OCc2cc(F)ccc21 [TAVABOROLE]	–	–	–	16 (≈ 105 µM)	16 (≈ 105 µM)	–	32 (≈ 211 µM)	16 (≈ 105 µM)	–	–	–	32 (≈ 211 µM)
O=c1ccc2ccc(COC(Cn3ccnc3)c3ccc(F)cc3F)cc2o1 (configuration not stated)	64 (≈ 167 µM)	0.25 (≈ 0.654 µM)	64 (≈ 167 µM)	32 (≈ 83.7 µM)	128 (≈ 335 µM)	4 (≈ 10.5 µM)	128 (≈ 335 µM)	32 (≈ 83.7 µM)	8 (≈ 20.9 µM)	16 (≈ 41.8 µM)	64 (≈ 167 µM)	64 (≈ 167 µM)
O=c1oc2ccc([N+](=O)[O-])cc2cc1COC(Cn1ccnc1)c1ccc(Cl)cc1Cl (configuration not stated)	> 128	64 (≈ 139 µM)	128 (≈ 278 µM)	–	–	> 128	–	–	> 128	> 128	128 (≈ 278 µM)	–
O=c1oc2ccccc2cc1COC(Cn1cncn1)c1ccc(F)cc1F (configuration not stated)	16 (≈ 41.7 µM)	0.25 (≈ 0.652 µM)	32 (≈ 83.5 µM)	–	–	8 (≈ 20.9 µM)	–	–	64 (≈ 167 µM)	2 (≈ 5.22 µM)	8 (≈ 20.9 µM)	–
O=c1oc2ccc(Cl)cc2cc1COC(Cn1ccnc1)c1ccc(F)cc1F (configuration not stated)	128 (≈ 307 µM)	0.25 (≈ 0.6 µM)	16 (≈ 38.4 µM)	–	–	32 (≈ 76.8 µM)	–	–	128 (≈ 307 µM)	16 (≈ 38.4 µM)	128 (≈ 307 µM)	–
